Reference: patent US20050159599A1, “Cyclic compound, process for producing the same, and pest control agent” (priority 2002, published 2005)
One block for each compound: values may come before it.

Assays:
Spodoptera litura [1] = assay: Insecticidal effect for Spodoptera litura by spraying treatment to host crop (Test Example 2); assay type: in vivo; conditions: 100 ppm, sprayed on soybean, third-instar larvae of Spodoptera litura, fifth day after; for pest or weed control at 100 ppm: 120 h, read-out: rate of dead pests (%)
Method in brief: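 Ten third-instar larvae held at 25° C. on two excised primary soybean leaves previously sprayed to dripping with 100 ppm test solution. Mortality (%) calculated from dead versus tested larvae on the fifth day.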

Spodoptera litura [2] = assay: Insecticidal effect for Spodoptera litura by immersion treatment of host crop root (Test Example 4); assay type: in vivo; conditions: 25 ppm, soybean root immersion 5 days, second-instar larvae of Spodoptera litura, fifth day after; for pest or weed control at 25 ppm: 120 h, read-out: rate of dead pests (%)
Method in brief: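 Soil was washed from the roots of soybean plants at the primary-leaf stage, and the roots were immersed in a pesticidal solution held in a light-shielded 100 ml Erlenmeyer flask. The solution was made from acetone containing Tween 20, diluted with ion-exchange water. Five days after root immersion, two primary leaves were cut and placed in a 180 ml cup with ten second-instar Spodoptera litura larvae, then kept at 25° C. Survivors were counted five days later. The rate of dead pests (%) was calculated as dead pests divided by test pests, times 100.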

Plutella xylostella [3] = assay: Insecticidal effect for Plutella xylostella by immersion treatment of host crop root (Test Example 3); assay type: in vivo; conditions: 25 ppm, cabbage root immersed 5 days, ten second-instar larvae on stem and leaves, counted on the fifth day, 24° C.; for pest or weed control at 25 ppm: Plutella xylostella, 120 h, read-out: rate of dead pests (%)
Protocol: Insecticidal Effect for Plutella xylostella by Immersion Treatment of Host Crop Root
Roots of 4-leave stage cabbage was washed with tap water to remove soil, and then immersed in a pesticidal solution which was prepared by dissolving 5 mg of test compound (represented by the compound Nos. in the above Examples) in 0.5 ml of acetone containing Tween 20 (trade name) and then diluting it to the prescribed concentration (25 ppm) with ion-exchange water, and which was filled in a light-shielded Erlenmeyer flask (100 ml). On the fifth day after immersion of root, the root was cut off, and the stem and leaves were put into an ice cream cup (180 ml). Ten second-instar larvae of Plutella xylostella were set free therein, and the cup was left in a temperature-controlled breeding room (24° C.). On the fifth day after, the number of surviving Plutella xylostella was examined. The rate of dead pests was calculated by the following formula. rate of dead pests (%)=(number of dead pests/number of test pests)×100

Plutella xylostella [4] = assay: Pest control effect for Plutella xylostella by plant seedling foot soil surface irrigation treatment, 24th day (Test Example 6); assay type: in vivo; conditions: 20 mg/plant; soil surface irrigation of cabbage; larvae counted on the 24th day
Protocol: (§1) Pest Control Effect for Plutella xylostella by Plant Seedling Foot Soil Surface Irrigation Treatment With Pesticidal Solution
(§2) A pesticidal solution which was prepared by dissolving 20 mg of test compound (represented by the compound Nos. in the above Examples) in 0.2 ml of acetone containing Tween 20 (trade name) and then diluting to 3 ml with ion-exchange water, was irrigated on the plant foot soil surface of 2.5-leave stage cabbage. This cabbage plant was transplanted to 1/5000a pot, and left in a facility wherein imagoes of Plutella xylostella were set free to lay eggs successively. On the 24th day after, the number of lavae on the plant was examined. The rate of pest control was calculated by the following formula. rate of pest control (%)=(1−number of pests in treated plant/number of pests in non-treated-plant)×100

Plutella xylostella [5] = assay: Insecticidal effect for Plutella xylostella by immersion treatment of host crop (Test Example 1); assay type: in vivo; conditions: cabbage leaf dipped, second-instar larvae of Plutella xylostella, fifth day after; for rate of dead pests (%): 100 ppm; for pest or weed control at 100 ppm: foliar, 120 h, read-out: rate of dead pests (%)
Method in brief: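 Cabbage leaf discs dipped in 100 ppm compound (acetone/Tween 20, diluted in sticker water), dried, then infested with ten second-instar larvae and kept at 24° C. Survivors counted on day 5; mortality expressed as dead/tested pests ×100.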

Plutella xylostella [6] = assay: Pest control effect for Plutella xylostella by plant seedling foot soil surface irrigation treatment, 30th day (Test Example 7); assay type: in vivo; conditions: 20 mg/plant; soil surface irrigation of cabbage; larvae counted on the 30th day
Protocol: as §1
as §2, with “30th” for “24th”, “non-treated plant)×100” for “non-treated-plant)×100”

Plutella xylostella [7] = assay: Insecticidal effect for Plutella xylostella by seed treatment (Test Example 8); assay type: in vivo; conditions: cabbage seed treatment, leaves cut 31st day after sowing, first-instar larvae, third day after
Protocol: Insecticidal Effect for Plutella xylostella by Seed Treatment 4% aqueous solution of PVA (polyvinylalcohol) was applied to seeds of cabbage. Then the seeds were powdered with test compound (represented by the compound Nos. in the above Examples), and sowed in a Φ 6 cm in diameter Jiffy Pot (trade name). On the 31th day after sowing, the stem and leaves were cut off, and were put into an ice cream cup (180 ml). Fifteen first-instar larvae of Plutella xylostella were set free therein, and the cup was left in a temperature-controlled breeding room (24° C.). On the third day after, the number of surviving Plutella xylostella was examined. The rate of dead pests was calculated by the following formula. rate of dead pests (%)=(number of dead pests/number of test pests)×100

Compound: O=C(c1c(F)cccc1F)N1COCN(c2cc(Cl)c(F)c(Cl)c2F)C1=O [I-4]
rate of dead pests (%) (Spodoptera litura [1]): 100%
rate of dead pests (%) (Spodoptera litura [2]): 100%
rate of dead pests (%) (Plutella xylostella [3]): 95%
rate of pest control (%) (Plutella xylostella [4]): 92%

Compound: O=C(c1c(F)cccc1F)N1COCN(c2ccc([S+]([O-])C(F)(F)F)cc2)C1=O (stereo not shown) [I-26]
rate of dead pests (%) (Spodoptera litura [1]): 100%
rate of dead pests (%) (Spodoptera litura [2]): 100%
rate of dead pests (%) (Plutella xylostella [3]): 100%
rate of dead pests (%) (Plutella xylostella [5]): 100%
rate of pest control (%) (Plutella xylostella [4]): 100%

Compound: C[S+]([O-])c1ccc(N2COCN(C(=O)c3c(F)cccc3F)C2=O)c(F)c1 (stereo not shown) [I-29]
rate of dead pests (%) (Spodoptera litura [1]): 100%
rate of dead pests (%) (Spodoptera litura [2]): 100%
rate of dead pests (%) (Plutella xylostella [3]): 100%
rate of dead pests (%) (Plutella xylostella [5]): 100%
rate of pest control (%) (Plutella xylostella [4]): 92%

Compound: O=C(c1c(F)cccc1F)N1COCN(c2ccc([S+]([O-])C(F)F)cc2F)C1=O (stereo not shown) [I-42, 3-(2,6-difluorobenzoyl)-5-[4-(difluoromethylsulfinyl)-2-fluorophenyl]tetrahydro-4H-1,3,5-oxadiazin-4-one]
pest or weed control at 100 ppm (Spodoptera litura [1]): 100%
pest or weed control at 25 ppm (Spodoptera litura [2]): 100%
pest or weed control at 25 ppm (Plutella xylostella [3]): 100%
pest or weed control at 100 ppm (Plutella xylostella [5]): 100%
rate of pest control (%) (Plutella xylostella [6]): 94%

Compound: O=C(c1c(F)cccc1F)N1COCN(c2ccc(SC(F)(F)F)cc2F)C1=O [I-44, 3-(2,6-difluorobenzoyl)-5-[2-fluoro-4-(trifluoromethylthio)phenyl]tetrahydro-4H-1,3,5-oxadiazin-4-one]
pest or weed control at 100 ppm (Spodoptera litura [1]): 100%
pest or weed control at 25 ppm (Spodoptera litura [2]): 100%
pest or weed control at 25 ppm (Plutella xylostella [3]): 100%
pest or weed control at 100 ppm (Plutella xylostella [5]): 100%
rate of pest control (%) (Plutella xylostella [6]): 96%
rate of dead pests (%) (Plutella xylostella [7]; 1 mg/seed): 100%
rate of dead pests (%) (Plutella xylostella [7]; 5 mg/seed): 97%

Compound: O=C(c1c(F)cccc1F)N1COCN(c2ccc([S+]([O-])C(F)(F)F)cc2F)C1=O (stereo not shown) [I-45, 3-(2,6-difluorobenzoyl)-5-[2-fluoro-4-(trifluoromethylsulfinyl)phenyl]tetrahydro-4H-1,3,5-oxadiazin-4-one]
pest or weed control at 100 ppm (Spodoptera litura [1]): 100%
pest or weed control at 25 ppm (Spodoptera litura [2]): 100%
rate of pest control (%) (Plutella xylostella [6]): 98%

melting point: 40 to 45 °C
Compound: O=C(c1c(F)cccc1F)N1COCN(c2ccc([S+]([O-])C(F)(C(F)(F)F)C(F)(F)F)cc2F)C1=O (stereo not shown) [I-159, 3-(2,6-difluorobenzoyl)-5-[2-fluoro-4-(1,1,1,2,3,3,3-heptafluoro-2-propylsulfinyl)phenyl]tetrahydro-4H-1,3,5-oxadiazin-4-one]

melting point: 128.5 to 130.5 °C
Compound: O=C(c1c(F)cccc1F)N1CSCN(c2ccc(Cl)cc2)C1=O [II-1, 3-(4-chlorophenyl)-5-(2,6-difluorobenzoyl)tetrahydro-4H-1,3,5-thiadiazin-4-one]

melting point: 220 to 220.5 °C
Compound: O=C(c1c(F)cccc1F)N1C[S+]([O-])CN(c2ccc(Cl)cc2)C1=O (stereo not shown) [II-2, 3-(4-chlorophenyl)-5-(2,6-difluorobenzoyl)tetrahydro-4H-1,3,5-thiadiazin-4-one-1-oxide]

melting point: 274 to 275 °C
Compound: O=C(c1c(F)cccc1F)N1CS(=O)(=O)CN(c2ccc(Cl)cc2)C1=O [II-3, 3-(4-chlorophenyl)-5-(2,6-difluorobenzoyl)tetrahydro-4H-1,3,5-thiadiazin-4-one-1,1-dioxide]

melting point: 130 to 131 °C
Compound: CC(C)N1CN(C(=O)c2c(F)cccc2F)C(=O)N(c2ccc(Cl)cc2)C1 [III-3, 1-(4-chlorophenyl)-3-(2,6-difluorobenzoyl)-5-isopropyltetrahydro-1,3,5-triazin-2(1H)-one]

Compound: C#CCN1CN(C(=O)c2c(F)cccc2F)C(=O)N(c2ccc([S+]([O-])C(F)(F)C(F)Cl)cc2F)C1 (stereo not shown) [III-89]
rate of dead pests (%) (Spodoptera litura [1]): 100%
rate of dead pests (%) (Plutella xylostella [3]): 100%
rate of dead pests (%) (Plutella xylostella [5]): 100%
rate of pest control (%) (Plutella xylostella [4]): 92%

Compound: CN1CN(C(=O)c2c(F)cccc2F)C(=O)N(c2ccc(SC(F)(F)F)cc2F)C1 [III-160, 1-(2,6-difluorobenzoyl)-3-[2-fluoro-4-(trifluoromethylthio)phenyl]-5-methyltetrahydro-1,3,5-triazin-2(1H)-one]
pest or weed control at 100 ppm (Spodoptera litura [1]): 100%
pest or weed control at 25 ppm (Plutella xylostella [3]): 90%
pest or weed control at 100 ppm (Plutella xylostella [5]): 100%
rate of pest control (%) (Plutella xylostella [6]): 91%

Compound: CN1CN(C(=O)c2c(F)cccc2F)C(=O)N(c2ccc([S+]([O-])C(F)(F)F)cc2F)C1 (stereo not shown) [III-164, 1-(2,6-difluorobenzoyl)-3-[2-fluoro-4-(trifluoromethylsulfinyl)phenyl]-5-methyltetrahydro-1,3,5-triazin-2(1H)-one]
pest or weed control at 100 ppm (Spodoptera litura [1]): 100%
pest or weed control at 25 ppm (Spodoptera litura [2]): 100%
pest or weed control at 100 ppm (Plutella xylostella [5]): 100%
rate of pest control (%) (Plutella xylostella [6]): 95%
